The values below come from patent publication US20230105693A1, “ANTIMICROBIAL COMPOSITIONS” (Firmenich SA, priority 2020, published 2023).

Read-outs that look alike come from different tables or passages of the source.

One may read the Log P as the decadic logarithm of the partition coefficient of the neutral form, usually between octanol and water. Higher therefore signals a more lipophilic compound.

Data set [1] in a line: Equivalent alkane carbon number (EACN) in model microemulsion system. Type of data set: physicochemical. Conditions: C10E5/water/isopropyl myristate model system, 3% wt perfume ingredient. As to the method:
EACN values provide information on polarity and surface activity of apolar ingredients. Tchakalova and Fieber (J. of Surfactants and Detergents, 2012, 15(2):167-177) classified perfume ingredients based on values of EACNmix, the EACN of a mixture consisting of a test perfume ingredient and a reference oil (isopropyl myristate). The same model system and method were used to measure the EACN values of perfume ingredients with antimicrobial activities. Different perfume ingredients were added to the model microemulsion system shown in Table 1, in which the nonionic pentaethylene glycol mono n-decyl ether (C10E5) was used as surfactant. Phase transition temperatures of the system from Winsor I to Winsor III, and from Winsor III to Winsor II were determined using a water bath. Alkanes with different alkane carbon numbers (octane, decane, dodecane and hexadecane) were used to establish a linear correlation curve between EACN and the PIT, which is the average of the transitions from Winsor I to Winsor III, and from Winsor III to Winsor II, respectively. EACNmix was then calculated based on the linear relationship and the measured PIT for systems containing different perfume ingredients. The EACN of the pure perfume ingredient was calculated based on the molar ratio of the tested PRMs in the oil phase using following equation: […]
wherein n and nref are the molar fractions of tested perfume ingredient and the reference ingredient (i.e., isopropyl myristate) in the oil phase, respectively.

The test system of data set [2] is Escherichia coli ATCC 10536. Briefly: Robotic BCT test of perfume ingredients in model surfactant bases. It counts as cell-based. The conditions noted are these: for log reduction at 0.5 %: Escherichia coli, ATCC10536, 45 s; for Log reduction (Log CFU/mL) Base 3: Base 3: SLES 1.5%, coco-glucoside 0.75%; for Log reduction (Log CFU/mL) Base 4: Base 4: SLES 2.25%, sodium xylene sulfonate 3%. Here is the method: The surfactant bases tested included 1) sodium lauryl ether sulfate (SLES) and cocamidopropyl betaine (CAPB) at 3:1 mass ratios; 2) SLES, CAPB and coco-glucoside at 2:1:1 mass ratios. Test samples were prepared by mixing perfume ingredients with the surfactant bases and vigorously stirred for 24 hrs. Concentration of perfume ingredients in the bases was 0.5% wt. Samples with transparent appearance were selected for antimicrobial testing.
Antimicrobial efficacy was tested against a representative Gram-negative bacterial strain, Escherichia coli ATCC 10536, using robotic bacteria contact time (BCT) test based on European standard EN-1276 and EP2787827(B1).
Preparation of screening plate and dilution plate: Aliquots (270 µl) of compositions were dispensed into the wells of a 96-well microtiter plate (MTP) along two columns (B1-H1, and B7-H7), and 270 µl of MilliQ water was added to well A1 and A7 as the control samples. This MTP was labelled as the “Screening plate”. In another MTP, labelled as the “Dilution plate”, 270 µL of Dey-Engley (D/E) neutralizing solution was added to column 1 and column 7. 270 µl of tryptone diluent solution was added to columns 2-6 and columns 8-12 of the Dilution MTP by a Hamilton robotic liquid handling station.
BCT test & neutralization & dilution: Bacterial stock (30 µl) was then added to columns 1 of the ‘Screening plate’ and mixed by a Hamilton robotic liquid handling station. After a contact time of 45 seconds, 30 µl of the mixtures in column 1 were transferred into the corresponding wells of column 1 of the ‘Dilution plate’. After neutralizing for 5 minutes in the D/E neutralizing solution, 30 µl of the neutralized mixtures were transferred from column 1 to column 2 of the Dilution MTP and mixed, followed by transferring 30 µl of the mixtures from column 2 into column 3. This process was repeated serially diluting the bacteria suspensions across the plate to column 6. Bacterial stock (30 µl) was then added to columns 7 of the ‘Screening plate’ and mixed by a Hamilton robotic liquid handling station. After a contact time of 45 seconds, 30 µl of the mixtures in column 7 were transferred into the corresponding wells of column 7 of the ‘Dilution plate’. After neutralizing for 5 minutes in the D/E neutralizing solution, 30 µl of the mixtures were transferred from column 7 to column 8 of the Dilution MTP and mixed, followed by transferring further 30 µl mixtures from column 8 into column 9. This process was repeated serially diluting the bacteria suspensions across the plate to column 12.
Plating: 30 µl volumes from each well in the Dilution MTP were transferred onto four Tryptone Soya Agar (TSA) plates. The TSA plates were allowed to stand for about two hours so that the 30 µl inocula spots could dry and the plates were then inverted and incubated overnight at 37° C. for 24 hours. After incubation, colonies were counted.
Calculating log reduction: Select the dilutions with colony counts, and calculate the viable cell counts (CFU/mL) of mixture in ‘Screening plate’, and log reduction against the control MilliQ sample was calculated.

Data set [3] is described as follows: physchem. It counts as physicochemical. As to the method:
The partition coefficient (P) is defined as the ratio of the concentrations (C) to the equilibrium of a dissolved and highly diluted substance in a biphasic system consisting of two almost immiscible solvents.
In the case of n-octanol and water:
The partition coefficient P is the quotient of two concentrations, it is generally indicated in its logarithmic form, base 10 (LogP).
The log P values of different perfume ingredients were measured using standard high performance liquid chromatography method, according to the reference (OECD, guideline No. 117, adopted on 13 Apr. 2004, Partition coefficient (n-octanol-water), High Performance Liquid Chromatography (HPLC) Method).

Where [4] appears, read: 0.5% perfume ingredient, Base 1: SLES 1.875%, CAPB 0.625%, contact 45 s, read-out: Log reduction in Base 1 (Log CFU/mL).
The mark [5] stands for this setting: n-octanol/water, HPLC method, read-out: Log P.
[6] abbreviates: model base 1, table by functional group, read-out: Log reduction in Base 1 (Log CFU/mL).
Where [7] appears, read: 0.5% perfume ingredient, CAPB 0.75%, contact 45 s.
The mark [8] stands for this setting: 0.5% perfume ingredient, Base 2: SLES 2.25%, CAPB 0.75%, contact 45 s, read-out: Log reduction (Log CFU/mL) Base 2.

Regarding `CC/C(CC(C)CC)=N/O` (racemic) [(+-)-(3Z)-5-methyl-3-heptanone oxime OR (+-)-(3E)-5-methyl-3-heptanone oxime], in data set [1], the EACN is -13.67. The “Log reduction in Base 1 (Log CFU/mL)” value in data set [2] (model base 1, table by functional group) is given as 3.3 Log CFU/mL. In addition, the “Log P” value in data set [3] was 2.45.

As to `CC(C)(O)Cc1ccccc1` [2-methyl-1-phenyl-2-propanol], in data set [1], the EACN is reported as -17.89. Further, in data set [2] (setting [4]), the log reduction at 0.5 % is -0.1. In data set [3] (setting [5]), the chromatographic logP was determined as 1.84.

With `CCCc1cccc(O)c1` [3-propylphenol], the EACN in data set [1] is reported as below -29.09. In addition, the log reduction at 0.5 % in data set [2] (setting [4]) and in data set [2] (setting [6]) was above 5.5 throughout. The chromatographic logP in data set [3] (setting [5]) is 2.1.

On to `C/C(C=O)=C\c1ccccc1` [(2E)-2-methyl-3-phenyl-2-propenal], for which the EACN in data set [1] was -12.17. For the same molecule, in data set [2] (setting [6]), the log reduction at 0.5 % turned out to be 3.7. Also, the chromatographic logP in data set [3] came to 2.56.

With `O=C/C=C/c1ccccc1` [(E)-3-Phenyl-2-propenal], the EACN in data set [1] is reported as -13.35. The log reduction at 0.5 % is above 3 in data set [2] (setting [4]) and 5.1 in data set [2] (setting [6]). The same molecule had a chromatographic logP in data set [3] of 1.5.

For “2 /3 //4-(5,5,6-trimethylbicyclo[2.2.1]hept-2-yl)-1-cyclohexanol(A/B/C) + 2-(1,7,7-trimethylbicyclo[2.2.1]hept-2-yl)-1-cyclohexanol (D)”, the EACN in data set [1] is -16.52. Moreover, the “Log reduction in Base 1 (Log CFU/mL)” value in data set [2] (0.5% perfume ingredient, Base 1: SLES 1.875%, CAPB 0.625%, contact 45 s) came to 0.4 Log CFU/mL. Moreover, the “Log reduction (Log CFU/mL) Base 2” value in data set [2] (0.5% perfume ingredient, Base 2: SLES 2.25%, CAPB 0.75%, contact 45 s) is given as -1.0 Log CFU/mL. In data set [2] (setting [7]), the “Log reduction (Log CFU/mL) Base 3” value is listed as “Insoluble” and the “Log reduction (Log CFU/mL) Base 4” value is recorded as -0.2 Log CFU/mL. In data set [3], the “Log P” value amounted to 5.23.

Take `C=CCc1ccc(O)c(OC)c1` [2-methoxy-4-(2-propen-1-yl)phenol]: the EACN in data set [1] is recorded as -31.24. In addition, the log reduction at 0.5 % in data set [2] (setting [4]) came out at 0.2. Moreover, the chromatographic logP in data set [3] (setting [5]) turned out to be 2.14.

On to `CCC(C)(O)CCCC(C)C` (racemic) [(+-)-3,7-dimethyl-3-octanol], for which the EACN in data set [1] is recorded as -4.83. In data set [2] (setting [7]), the “Log reduction (Log CFU/mL) Base 3” value is reported as 0.3 Log CFU/mL and the “Log reduction (Log CFU/mL) Base 4” value turned out to be 0.4 Log CFU/mL. In addition, the log reduction at 0.5 % in data set [2] (setting [4]) is 1.9 ± 1.6. Besides, the log reduction at 0.5 % in data set [2] (setting [8]) worked out at 0. In data set [3] (setting [5]), the chromatographic logP came to 3.78.

Take `Cc1ccc(O)cc1` [4-methylphenol]: in data set [1], the EACN is below -21.95. Moreover, in data set [2] (setting [4]), the log reduction at 0.5 % was 0.1. This molecule registered a chromatographic logP in data set [3] of 1.52.

Turning to `CC(C)c1ccc(CO)cc1` [4-isopropyl-1-benzenemethanol], the EACN in data set [1] is -36.04. For the same molecule, the log reduction at 0.5 % in data set [2] (setting [4]) stood at 1.3. In data set [3], the chromatographic logP was 2.23.

In the case of `OC/C=C/c1ccccc1` [(2E)-3-phenyl-2-propen-1-ol], the EACN in data set [1] is below -28.19. In addition, the log reduction at 0.5 % in data set [2] (setting [4]) is 0.1. The molecule further returned a chromatographic logP in data set [3] of 1.79.

`CC(C)(O)CCc1ccccc1` [2-methyl-4-phenyl-2-butanol]: the EACN in data set [1] is listed as -24.94. Further, in data set [2] (setting [4]), the log reduction at 0.5 % was -0.4. For the same molecule, the chromatographic logP in data set [3] (setting [5]) came out at 2.69.

`CCCCCCC1CCC(=O)O1` (racemic) [(+-)-4-decanolide]: the EACN in data set [1] is listed as -4.96. For the same molecule, the “Log reduction (Log CFU/mL) Base 3” value in data set [2] (setting [7]) turned out to be 0.6 Log CFU/mL. Also, in data set [2] (setting [7]), the “Log reduction (Log CFU/mL) Base 4” value came out at 0.25 Log CFU/mL. The log reduction at 0.5 % in data set [2] (setting [4]) came to 0.2 ± 0.3; in data set [2] (setting [8]), 0. In addition, in data set [3] (setting [5]), the chromatographic logP worked out at 3.02.

As to `c1ccc2[nH]ccc2c1` [indole], the EACN in data set [1] was below -24.93. The log reduction at 0.5 % in data set [2] (read-out: Log reduction in Base 1 (Log CFU/mL)) is 1.9. Also, in data set [3] (setting [5]), the chromatographic logP was 1.74.

As to `CC(CCO)CCc1ccccc1` (racemic) [(+-)-3-methyl-5-phenyl-1-pentanol], the EACN in data set [1] is -37.05. The “Log reduction (Log CFU/mL) Base 3” value in data set [2] (setting [7]) is recorded as 2.9 Log CFU/mL. Moreover, the “Log reduction (Log CFU/mL) Base 4” value in data set [2] (setting [7]) is on record as 2.8 Log CFU/mL. The log reduction at 0.5 % was determined as 5 ± 2.1 in data set [2] (setting [4]), 0 in data set [2] (setting [8]) and 4.3 in data set [2] (setting [6]). The same molecule displayed a chromatographic logP in data set [3] of 3.
